Legend:
Conditions in all cases: incubation time: 72 h
MDA-MB-453 [1] = experiment: normalised viability (% of control), CellTiter-Blue; higher = more viable cells (100 = DMSO, 0 = benzethonium chloride kill control)
Summary of the method: (§1)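 The reported quantity is normalised viability at a single listed concentration of the series. Compound in 5 µl medium was pre-dispensed into 384-well plates and 20 µl of breast cancer cell suspension was added for 72 h. A 2 h, 37 °C CellTiter-Blue step (2.5 µl) preceded fluorescence reading at 560/590 nm, and plates were normalised to vehicle (100) and a positive kill control (0).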

MDA-MB-231 [2] = experiment: as above
Summary of the method: as §1

MDA-MB-436 [3] = experiment: as above
Summary of the method: as §1

CAL-148 [4] = experiment: as above
Summary of the method: as §1

BT-549 [5] = experiment: as above
Summary of the method: as §1

MFM-223 [6] = experiment: as above
Summary of the method: as §1

HCC1937 [7] = experiment: as above
Summary of the method: as §1

HCC1599 [8] = experiment: as above
Summary of the method: as §1

Hs578T [9] = experiment: as above
Summary of the method: as §1

HDQ-P1 [10] = experiment: as above
Summary of the method: as §1

HCC1143 [11] = experiment: as above
Summary of the method: as §1

DU-4475 [12] = experiment: as above
Summary of the method: as §1

CAL-85-1 [13] = experiment: as above
Summary of the method: as §1

SK-BR-3 [14] = experiment: as above
Summary of the method: as §1

CAL-51 [15] = experiment: as above
Summary of the method: as §1

BT-474 [16] = experiment: as above
Summary of the method: as §1

CAL-120 [17] = experiment: as above
Summary of the method: as §1

MDA-MB-468 [18] = experiment: as above
Summary of the method: as §1

MDA-MB-453 [19] = experiment: normalised response (% of control), CellTiter-Glo; higher = more viable cells (100 = DMSO, 0 = benzethonium chloride kill control)
Summary of the method: (§2)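 Plates were normalised with 0.1 % DMSO as 100 and a positive kill control as 0. Breast cancer cell lines in 20 µl suspension had been seeded into 384-well plates with compound at 5 concentrations in 10-fold steps over a compound-specific 10,000-fold range, incubated 72 h, and read for CellTox Green fluorescence (485/520 nm) followed by CellTiter-Glo luminescence. Each value is the normalised signal at a single concentration.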

MDA-MB-231 [20] = experiment: as above
Summary of the method: as §2

MDA-MB-436 [21] = experiment: as above
Summary of the method: as §2

CAL-148 [22] = experiment: as above
Summary of the method: as §2

BT-549 [23] = experiment: as above
Summary of the method: as §2

MFM-223 [24] = experiment: as above
Summary of the method: as §2

HCC1937 [25] = experiment: as above
Summary of the method: as §2

HCC1599 [26] = experiment: as above
Summary of the method: as §2

Hs578T [27] = experiment: as above
Summary of the method: as §2

HDQ-P1 [28] = experiment: as above
Summary of the method: as §2

HCC1143 [29] = experiment: as above
Summary of the method: as §2

DU-4475 [30] = experiment: as above
Summary of the method: as §2

MCF-10A = experiment: as above
Summary of the method: as §2

CAL-85-1 [31] = experiment: as above
Summary of the method: as §2

SK-BR-3 [32] = experiment: as above
Summary of the method: as §2

CAL-51 [33] = experiment: as above
Summary of the method: as §2

BT-474 [34] = experiment: as above
Summary of the method: as §2

CAL-120 [35] = experiment: as above
Summary of the method: as §2

MDA-MB-468 [36] = experiment: as above
Summary of the method: as §2

## COC1=C2C[C@@H](C)C[C@H](OC)[C@H](O)[C@@H](C)/C=C(\C)[C@H](OC(N)=O)[C@@H](OC)/C=C\C=C(/C)C(=O)NC(=CC1=O)C2=O [Geldanamycin] (1 nM)
MDA-MB-453 [1]
  normalised viability: 108%
MDA-MB-231 [2]
  normalised viability: 96%
MDA-MB-436 [3]
  normalised viability: 110%
CAL-148 [4]
  normalised viability: 119%
BT-549 [5]
  normalised viability: 96.8%
MFM-223 [6]
  normalised viability: 99.9%
HCC1937 [7]
  normalised viability: 92.3%
HCC1599 [8]
  normalised viability: 87.6%
Hs578T [9]
  normalised viability: 130%
HDQ-P1 [10]
  normalised viability: 124%
HCC1143 [11]
  normalised viability: 95.3%
DU-4475 [12]
  normalised viability: 132%
CAL-85-1 [13]
  normalised viability: 94.6%
SK-BR-3 [14]
  normalised viability: 103%
CAL-51 [15]
  normalised viability: 105%
BT-474 [16]
  normalised viability: 112%
CAL-120 [17]
  normalised viability: 92.6%
MDA-MB-468 [18]
  normalised viability: 103%
MDA-MB-453 [19]
  normalised response: 127%
MDA-MB-231 [20]
  normalised response: 103%
MDA-MB-436 [21]
  normalised response: 107%
CAL-148 [22]
  normalised response: 129%
BT-549 [23]
  normalised response: 101%
MFM-223 [24]
  normalised response: 103%
HCC1937 [25]
  normalised response: 101%
HCC1599 [26]
  normalised response: 101%
Hs578T [27]
  normalised response: 108%
HDQ-P1 [28]
  normalised response: 101%
HCC1143 [29]
  normalised response: 107%
DU-4475 [30]
  normalised response: 102%
MCF-10A
  normalised response: 105%
CAL-85-1 [31]
  normalised response: 101%
SK-BR-3 [32]
  normalised response: 110%
CAL-51 [33]
  normalised response: 100%
BT-474 [34]
  normalised response: 105%
CAL-120 [35]
  normalised response: 107%
MDA-MB-468 [36]
  normalised response: 109%

## Cn1cnc2c(F)c(Nc3ccc(Br)cc3F)c(C(=O)NOCCO)cc21 [MEK-162] (0.1 nM)
MDA-MB-453 [1]
  normalised viability: 100%
MDA-MB-231 [2]
  normalised viability: 116%
MDA-MB-436 [3]
  normalised viability: 104%
CAL-148 [4]
  normalised viability: 111%
BT-549 [5]
  normalised viability: 105%
MFM-223 [6]
  normalised viability: 92.1%
HCC1937 [7]
  normalised viability: 105%
HCC1599 [8]
  normalised viability: 108%
Hs578T [9]
  normalised viability: 125%
HDQ-P1 [10]
  normalised viability: 102%
HCC1143 [11]
  normalised viability: 112%
DU-4475 [12]
  normalised viability: 106%
CAL-85-1 [13]
  normalised viability: 91.2%
SK-BR-3 [14]
  normalised viability: 102%
CAL-51 [15]
  normalised viability: 109%
BT-474 [16]
  normalised viability: 122%
CAL-120 [17]
  normalised viability: 83.7%
MDA-MB-468 [18]
  normalised viability: 104%
MDA-MB-453 [19]
  normalised response: 115%
MDA-MB-231 [20]
  normalised response: 101%
MDA-MB-436 [21]
  normalised response: 97.9%
CAL-148 [22]
  normalised response: 96.2%
BT-549 [23]
  normalised response: 98.5%
MFM-223 [24]
  normalised response: 101%
HCC1937 [25]
  normalised response: 94.4%
HCC1599 [26]
  normalised response: 114%
Hs578T [27]
  normalised response: 94.3%
HDQ-P1 [28]
  normalised response: 99.2%
HCC1143 [29]
  normalised response: 94.3%
DU-4475 [30]
  normalised response: 98.6%
MCF-10A
  normalised response: 105%
CAL-85-1 [31]
  normalised response: 100%
SK-BR-3 [32]
  normalised response: 103%
CAL-51 [33]
  normalised response: 93.5%
BT-474 [34]
  normalised response: 104%
CAL-120 [35]
  normalised response: 103%
MDA-MB-468 [36]
  normalised response: 108%

## CCOc1cc2ncc(C#N)c(Nc3ccc(OCc4ccccn4)c(Cl)c3)c2cc1NC(=O)/C=C/CN(C)C [Neratinib] (0.1 nM)
MDA-MB-453 [1]
  normalised viability: 105%
MDA-MB-231 [2]
  normalised viability: 99.6%
MDA-MB-436 [3]
  normalised viability: 123%
CAL-148 [4]
  normalised viability: 96.7%
BT-549 [5]
  normalised viability: 105%
MFM-223 [6]
  normalised viability: 99.2%
HCC1937 [7]
  normalised viability: 82.6%
HCC1599 [8]
  normalised viability: 104%
Hs578T [9]
  normalised viability: 99.7%
HDQ-P1 [10]
  normalised viability: 86.8%
HCC1143 [11]
  normalised viability: 103%
DU-4475 [12]
  normalised viability: 107%
CAL-85-1 [13]
  normalised viability: 83%
SK-BR-3 [14]
  normalised viability: 99.8%
CAL-51 [15]
  normalised viability: 91.5%
BT-474 [16]
  normalised viability: 97.3%
CAL-120 [17]
  normalised viability: 86%
MDA-MB-468 [18]
  normalised viability: 100%
MDA-MB-453 [19]
  normalised response: 117%
MDA-MB-231 [20]
  normalised response: 98.3%
MDA-MB-436 [21]
  normalised response: 94.8%
CAL-148 [22]
  normalised response: 105%
BT-549 [23]
  normalised response: 103%
MFM-223 [24]
  normalised response: 108%
HCC1937 [25]
  normalised response: 97.8%
HCC1599 [26]
  normalised response: 96.6%
Hs578T [27]
  normalised response: 106%
HDQ-P1 [28]
  normalised response: 102%
HCC1143 [29]
  normalised response: 100%
DU-4475 [30]
  normalised response: 98.5%
MCF-10A
  normalised response: 104%
CAL-85-1 [31]
  normalised response: 97.2%
SK-BR-3 [32]
  normalised response: 101%
CAL-51 [33]
  normalised response: 89%
BT-474 [34]
  normalised response: 105%
CAL-120 [35]
  normalised response: 98.4%
MDA-MB-468 [36]
  normalised response: 105%
